Source: patent US20240351997A1, “NOVEL PARP7 INHIBITOR AND USE THEREOF” (SHANGHAI QILU PHARMACEUTICAL RESEARCH AND DEVELOPMENT …, priority 2021, published 2024)

Molecular target: PARP7 (Homo sapiens (Human), UniProt Q7Z3E1)
Test: In vitro enzymology experiment of PARP7 (enzymatic inhibition)
Format: biochemical
Outline: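 Histone-coated plate ADP-ribosylation format: compound preincubated 10 min at room temperature with preincubated (25 °C, 10 min) enzyme mixture; incorporated biotin detected by streptavidin-HRP and QuantaRed fluorescence (Ex550/Em620).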

PARP7, sequence (Q7Z3E1 whole entry): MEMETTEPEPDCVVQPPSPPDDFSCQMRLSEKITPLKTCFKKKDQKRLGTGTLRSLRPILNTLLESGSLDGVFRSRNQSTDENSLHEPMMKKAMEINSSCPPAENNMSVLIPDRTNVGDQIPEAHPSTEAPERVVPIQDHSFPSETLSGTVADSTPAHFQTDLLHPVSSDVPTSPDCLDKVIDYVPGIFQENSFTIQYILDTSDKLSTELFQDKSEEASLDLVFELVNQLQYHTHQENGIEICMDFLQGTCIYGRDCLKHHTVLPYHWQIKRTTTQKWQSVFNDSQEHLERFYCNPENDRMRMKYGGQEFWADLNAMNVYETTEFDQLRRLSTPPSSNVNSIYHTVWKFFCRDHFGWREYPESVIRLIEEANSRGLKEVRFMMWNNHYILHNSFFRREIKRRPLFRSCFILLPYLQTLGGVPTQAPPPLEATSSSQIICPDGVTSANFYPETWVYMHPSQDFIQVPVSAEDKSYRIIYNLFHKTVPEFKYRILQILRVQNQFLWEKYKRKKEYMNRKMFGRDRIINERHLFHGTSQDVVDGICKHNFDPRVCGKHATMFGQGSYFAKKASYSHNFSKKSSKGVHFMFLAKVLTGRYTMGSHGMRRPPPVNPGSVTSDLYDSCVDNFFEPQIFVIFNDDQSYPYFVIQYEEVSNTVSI

SMILES | IC50
C[C@H]1CN(c2ncc(C(F)(F)F)cn2)CCN1C(=O)OCCc1c[nH]c(=O)c(C(F)(F)F)c1 [Example 108, 2-(6-Oxo-5-(trifluoromethyl)-1,6-dihydropyridin-3-yl)ethyl (S)-2-methyl-4-(5-(trifluoromethyl)pyrimidin-2-yl)piperazine-1-carboxylate] | 0.63 nM
O=C(OCCc1c[nH]c(=O)c(C(F)(F)F)c1)N1CCN(c2ncc(C(F)(F)F)cn2)C[C@H]1CO [Example 110, 2-(6-Oxo-5-(trifluoromethyl)-1,6-dihydropyridin-3-yl)ethyl (S)-2-(hydroxymethyl)-4-(5-(trifluoromethyl)pyrimidin-2-yl)piperazine-1-carboxylate] | 0.65 nM
O=C(OCCc1c[nH]c(=O)c(C(F)(F)F)c1)N1CCN(c2ncc(C(F)(F)F)cn2)[C@H](CO)C1 [Example 111, 2-(6-Oxo-5-(trifluoromethyl)-1,6-dihydropyridin-3-yl)ethyl (S)-3-(hydroxymethyl)-4-(5-(trifluoromethyl)pyrimidin-2-yl)piperazine-1-carboxylate] | 0.61 nM
C[C@@H]1CN(C(=O)OCCc2c[nH]c(=O)c(C(F)(F)F)c2)CCN1c1ncc(C(F)(F)F)cn1 [Example 112, 2-(6-Oxo-5-(trifluoromethyl)-1,6-dihydropyridin-3-yl)ethyl (R)-3-methyl-4-(5-(trifluoromethyl)pyrimidin-2-yl)piperazine-1-carboxylate] | 0.62 nM
C[C@H]1CN(C(=O)OCCc2c[nH]c(=O)c(C(F)(F)F)c2)CCN1c1ncc(C(F)(F)F)cn1 [Example 113, 2-(6-Oxo-5-(trifluoromethyl)-1,6-dihydropyridin-3-yl)ethyl (S)-3-methyl-4-(5-(trifluoromethyl)pyrimidin-2-yl)piperazine-1-carboxylate] | 0.65 nM
CC(C)(O)c1cnc(N2CCN(C(=O)OCCc3c[nH]c(=O)c(C(F)(F)F)c3)CC2)nc1 [Example 114, 2-(6-Oxo-5-(trifluoromethyl)-1,6-dihydropyridin-3-yl)ethyl 4-(5-(2-hydroxypropan-2-yl)pyrimidin-2-yl)piperazine-1-carboxylate] | 0.53 nM
CN(CCc1c[nH]c(=O)c(C(F)(F)F)c1)C(=O)N1CCN(c2ncc(C(F)(F)F)cn2)CC1 [Example 115, N-Methyl-N-(2-(6-oxo-5-(trifluoromethyl)-1,6-dihydropyridin-3-yl)ethyl)-4-(5-(trifluoromethyl)pyrimidin-2-yl)piperazine-1-carboxamide] | 1 nM
CC[C@@H](Cc1c[nH]c(=O)c(C(F)(F)F)c1)OC(=O)N1CCN(c2ncc(C(F)(F)F)cn2)CC1 [Example 116, (S)-1-(6-Oxo-5-(trifluoromethyl)-1,6-dihydropyridin-3-yl) butan-2-yl 4-(5-(trifluoromethyl)pyrimidin-2-yl)piperazine-1-carboxylate] | 0.81 nM
O=C(O[C@@H](CO)Cc1c[nH]c(=O)c(C(F)(F)F)c1)N1CCN(c2ncc(C(F)(F)F)cn2)CC1 [Example 117, (R)-1-Hydroxy-3-(6-oxo-5-(trifluoromethyl)-1,6-dihydropyridin-3-yl)propan-2-yl 4-(5-(trifluoromethyl)pyrimidin-2-yl)piperazine-1-carboxylate] | 0.62 nM
O=C(OCCc1c[nH]c(=O)c(C(F)(F)F)c1)N1CCN(c2ncc(C3CCCCC3)cn2)CC1 [Example 118, 2-(6-Oxo-5-(trifluoromethyl)-1,6-dihydropyridin-3-yl)ethyl 4-(5-cyclohexylpyrimidin-2-yl)piperazine-1-carboxylate] | 0.93 nM
O=C(OCCc1c[nH]c(=O)c(C(F)(F)F)c1)N1CCN(c2ncc(C3CCCC3)cn2)CC1 [Example 119, 2-(6-Oxo-5-(trifluoromethyl)-1,6-dihydropyridin-3-yl)ethyl 4-(5-cyclopentylpyrimidin-2-yl)piperazine-1-carboxylate] | 0.24 nM
CC(=O)c1cnc(N2CCN(C(=O)O[C@@H](C)Cc3c[nH]c(=O)c(C(F)(F)F)c3)CC2)nc1 [Example 120, (S)-1-(6-Oxo-5-(trifluoromethyl)-1,6-dihydropyridin-3-yl)propan-2-yl 4-(5-acetylpyrimidin-2-yl)piperazine-1-carboxylate] | 0.66 nM
CC[C@H]1CN(c2ncc(C(F)(F)F)cn2)CCN1C(=O)OCCc1c[nH]c(=O)c(C(F)(F)F)c1 [Example 121, 2-(6-Oxo-5-(trifluoromethyl)-1,6-dihydropyridin-3-yl)ethyl (S)-2-ethyl-4-(5-(trifluoromethyl)pyrimidin-2-yl)piperazine-1-carboxylate] | 0.54 nM
CC[C@@H]1CN(c2ncc(C(F)(F)F)cn2)CCN1C(=O)OCCc1c[nH]c(=O)c(C(F)(F)F)c1 [Example 122, 2-(6-Oxo-5-(trifluoromethyl)-1,6-dihydropyridin-3-yl)ethyl (R)-2-ethyl-4-(5-(trifluoromethyl)pyrimidin-2-yl)piperazine-1-carboxylate] | 0.69 nM
CC[C@@H]1CN(C(=O)OCCc2c[nH]c(=O)c(C(F)(F)F)c2)CCN1c1ncc(C(F)(F)F)cn1 [Example 123, 2-(6-Oxo-5-(trifluoromethyl)-1,6-dihydropyridin-3-yl)ethyl (R)-3-ethyl-4-(5-(trifluoromethyl)pyrimidin-2-yl)piperazine-1-carboxylate] | 0.87 nM
CC[C@H]1CN(C(=O)OCCc2c[nH]c(=O)c(C(F)(F)F)c2)CCN1c1ncc(C(F)(F)F)cn1 [Example 124, 2-(6-Oxo-5-(trifluoromethyl)-1,6-dihydropyridin-3-yl)ethyl (S)-3-ethyl-4-(5-(trifluoromethyl)pyrimidin-2-yl)piperazine-1-carboxylate] | 0.48 nM
O=C(OCCc1c[nH]c(=O)c(C(F)(F)F)c1)N1CC2CCC(C1)N2c1ncc(C(F)(F)F)cn1 [Example 125, 2-(6-Oxo-5-(trifluoromethyl)-1,6-dihydropyridin-3-yl)ethyl 8-(5-(trifluoromethyl)pyrimidin-2-yl)-3,8-diazabicyclo[3.2.1]octane-3-carboxylate] | 0.71 nM
O=C(OCCc1c[nH]c(=O)c(C(F)(F)F)c1)N1C2CCC1CN(c1ncc(C(F)(F)F)cn1)C2 [Example 126, 2-(6-Oxo-5-(trifluoromethyl)-1,6-dihydropyridin-3-yl)ethyl 3-(5-(trifluoromethyl)pyrimidin-2-yl)-3,8-diazabicyclo[3.2.1]octane-8-carboxylate] | 1 nM
O=C(OCCc1c[nH]c(=O)c(C(F)(F)F)c1)N1CCN(c2cnc(C(F)(F)F)cn2)CC1 [Example 127, 2-(6-Oxo-5-(trifluoromethyl)-1,6-dihydropyridin-3-yl)ethyl 4-(5-(trifluoromethyl)pyrazin-2-yl)piperazine-1-carboxylate] | 0.49 nM
N#CC[C@@H]1CN(c2ncc(C(F)(F)F)cn2)CCN1C(=O)OCCc1c[nH]c(=O)c(C(F)(F)F)c1 [Example 128, 2-(6-Oxo-5-(trifluoromethyl)-1,6-dihydropyridin-3-yl)ethyl (R)-2-(cyanomethyl)-4-(5-(trifluoromethyl)pyrimidin-2-yl)piperazine-1-carboxylate] | 0.81 nM
O=C(OCCc1c[nH]c(=O)c(C(F)(F)F)c1)N1CCN(c2ncc(C(F)(F)F)cc2F)CC1 [Example 130, 2-(6-Oxo-5-(trifluoromethyl)-1,6-dihydropyridin-3-yl)ethyl 4-(3-fluoro-5-(trifluoromethyl)pyridin-2-yl)piperazine-1-carboxylate] | 0.77 nM
Cc1cc(C(F)(F)F)cnc1N1CCN(C(=O)OCCc2c[nH]c(=O)c(C(F)(F)F)c2)CC1 [Example 132, 2-(6-Oxo-5-(trifluoromethyl)-1,6-dihydropyridin-3-yl)ethyl 4-(3-methyl-5-(trifluoromethyl)pyridin-2-yl)piperazine-1-carboxylate] | 0.78 nM
Cc1[nH]c(=O)c(C(F)(F)F)cc1C[C@H](C)OC(=O)N1CCN(c2ncc(C(F)(F)F)cn2)CC1 [Example 133, (S)-1-(2-Methyl-6-oxo-5-(trifluoromethyl)-1,6-dihydropyridin-3-yl)propan-2-yl 4-(5-(trifluoromethyl)pyrimidin-2-yl)piperazine-1-carboxylate] | 0.76 nM
O=C(Oc1ccccc1-c1c[nH]c(=O)c(C(F)(F)F)c1)N1CCN(c2ncc(C(F)(F)F)cn2)CC1 [Example 134, 2-(6-Oxo-5-(trifluoromethyl)-1,6-dihydropyridin-3-yl)phenyl 4-(5-(trifluoromethyl)pyrimidin-2-yl)piperazine-1-carboxylate] | 1.92 nM
Cc1ccc(OC(=O)N2CCN(c3ncc(C(F)(F)F)cn3)CC2)cc1-c1c[nH]c(=O)c(C(F)(F)F)c1 [Example 135, 4-Methyl-3-(6-oxo-5-(trifluoromethyl)-1,6-dihydropyridin-3-yl)phenyl 4-(5-(trifluoromethyl)pyrimidin-2-yl)piperazine-1-carboxylate] | 2.78 nM
O=C(Oc1cncc(-c2c[nH]c(=O)c(C(F)(F)F)c2)c1)N1CCN(c2ncc(C(F)(F)F)cn2)CC1 [Example 136, 6′-Oxo-5′-(trifluoromethyl)-1′,6′-dihydro-[3,3′-bipyridin]-5-yl 4-(5-(trifluoromethyl)pyrimidin-2-yl)piperazine-1-carboxylate] | 3.53 nM
O=C(Oc1ccnc(-c2c[nH]c(=O)c(C(F)(F)F)c2)c1)N1CCN(c2ncc(C(F)(F)F)cn2)CC1 [Example 137, 6′-Oxo-5′-(trifluoromethyl)-1′,6′-dihydro-[2,3′-bipyridin]-4-yl 4-(5-(trifluoromethyl)pyrimidin-2-yl)piperazine-1-carboxylate] | 2.4 nM
Cc1cc(OC(=O)N2CCN(c3ncc(C(F)(F)F)cn3)CC2)cc(-c2c[nH]c(=O)c(C(F)(F)F)c2)c1 [Example 138, 3-Methyl-5-(6-oxo-5-(trifluoromethyl)-1,6-dihydropyridin-3-yl)phenyl 4-(5-(trifluoromethyl)pyrimidin-2-yl)piperazine-1-carboxylate] | 1.8 nM
O=C(Oc1ccc(F)c(-c2c[nH]c(=O)c(C(F)(F)F)c2)c1)N1CCN(c2ncc(C(F)(F)F)cn2)CC1 [Example 139, 4-Fluoro-3-(6-oxo-5-(trifluoromethyl)-1,6-dihydropyridin-3-yl)phenyl 4-(5-(trifluoromethyl)pyrimidin-2-yl)piperazine-1-carboxylate] | 0.9 nM
